Columns and labels:
[1] = In vitro plasma stability, cynomolgus monkey plasma; conditions: 2 μM, 37 °C, time point 120 min
[2] = In vitro plasma stability, SD rat plasma; conditions: 2 μM, 37 °C, time point 120 min
[3] = In vitro plasma stability, CD-1 mouse plasma; conditions: 2 μM, 37 °C, time point 120 min
E. coli = experiment: Microbial spectrum, E. coli; type: cell-based, Escherichia coli; conditions: clavulanate 4 μg/mL; Table S4
[4] = Stability in fasted simulated intestinal fluid (FaSSIF); conditions: 10 μM, pH 6.5, room temperature
plasma proteins [5] = experiment: Plasma protein binding (equilibrium dialysis), SD rat; conditions: 2 μM
[6] = Stability in simulated gastric fluid (SGF); conditions: 10 μM, pH 1.2, room temperature
plasma proteins [7] = experiment: Plasma protein binding (equilibrium dialysis), human; conditions: 2 μM
[8] = In vitro plasma stability, beagle dog plasma; conditions: 2 μM, 37 °C, time point 120 min
C. albicans = experiment: Microbial spectrum, C. albicans; type: cell-based, Candida albicans; conditions: no clavulanate; Table S4
Caco-2 cells = experiment: Caco-2 permeability / efflux transporter substrate; conditions: for Caco-2 Mean Papp A to B / Caco-2 Mean Papp B to A: 3 μM, pH 7.4, 120 min; for Caco-2 Efflux Ratio / Caco-2 Mean Recovery % A to B / Caco-2 Mean Recovery % B to A / Caco-2 Rank Papp / Efflux Transporter Substrate: Caco-2
[9] = In vitro plasma stability, human plasma; conditions: 2 μM, 37 °C, time point 120 min
S. aureus = experiment: Microbial spectrum, S. aureus; type: cell-based, Staphylococcus aureus; conditions: clavulanate 4 μg/mL; Table S4
Mtb H37Rv [10] = experiment: MIC90 against nonreplicating (NR, 4-stress) Mtb H37Rv, with or without clavulanate; type: cell-based, Mycobacterium tuberculosis; conditions: 4-stress nonreplicating, Table S4; for Mtb H37Rv NR + CLAV (MIC90): clavulanate 4 μg/mL; for Mtb H37Rv NR (MIC90): no clavulanate
P. aeruginosa = experiment: Microbial spectrum, P. aeruginosa; type: cell-based, Pseudomonas aeruginosa; conditions: clavulanate 4 μg/mL; Table S4
plasma proteins [11] = experiment: Plasma protein binding (equilibrium dialysis), beagle dog; conditions: 2 μM
Mtb H37Rv [12] = experiment: MIC90 against replicating (R) Mtb H37Rv, with or without clavulanate; type: cell-based, Mycobacterium tuberculosis; conditions: Table S4; for Mtb H37Rv R + CLAV (MIC90): clavulanate 4 μg/mL; for Mtb H37Rv R (MIC90): no clavulanate
plasma proteins [13] = experiment: Plasma protein binding (equilibrium dialysis), CD-1 mouse; conditions: 2 μM

Row | SMILES | E.coli R + CLAV (MIC90) (E. coli) | C.albicans R (MIC90) (C. albicans) | S.aureus R + CLAV (MIC90) (S. aureus) | Mtb H37Rv NR + CLAV (MIC90) (Mtb H37Rv [10]) | Mtb H37Rv NR (MIC90) (Mtb H37Rv [10]) | P.aeruginosa R + CLAV (MIC90) (P. aeruginosa) | Mtb H37Rv R + CLAV (MIC90) (Mtb H37Rv [12]) | Mtb H37Rv R (MIC90) (Mtb H37Rv [12]) | further results
1 | Cn1c(SCC2=C(C(=O)O)N3C(=O)[C@@H](NC(=O)Cc4ccccc4CN)[C@H]3SC2)nnc(O)c1=O [TBBL-0000460] | 13.4 µM | > 200 µM | 4.6 µM | 85.6 µM | 69.3 µM | > 200 µM | 2 µM | 5.4 µM | Plasma stability % Remaining, Monkey [1]: 25.6%; Plasma stability % Remaining, Rat [2]: 92.4%; Plasma stability % Remaining, Mouse [3]: 88.8%; FaSSIF Stability, % remaining, 6h [4]: 96.2%; FaSSIF Stability, % remaining, 24h [4]: 86.61%; % bound to plasma, SD Rat (plasma proteins [5]): 29.0%; SGF Stability, % remaining, 1h [6]: 102.88%; SGF Stability, % remaining, 24h [6]: 85.68%; % bound to plasma, Human (plasma proteins [7]): 15.9%; Plasma stability % Remaining, Dog [8]: 73.7%; Caco-2 Mean Papp A to B (Caco-2 cells): 0.16 10-6 cm/s; Caco-2 Mean Papp B to A (Caco-2 cells): 0.24 10-6 cm/s; Caco-2 Efflux Ratio (Caco-2 cells): 1.52; Caco-2 Mean Recovery % A to B (Caco-2 cells): 97.79%; Caco-2 Mean Recovery % B to A (Caco-2 cells): 106.35%; Caco-2 Rank Papp (Caco-2 cells): Low; Efflux Transporter Substrate (Caco-2 cells): Poor or no; Plasma stability % Remaining, Human [9]: 90.4%; % bound to plasma, Beagle Dog (plasma proteins [11]): 0.0%; % bound to plasma, CD-1 Mouse (plasma proteins [13]): 16.1%
2 | CC=CC(=O)OCC1=C(C(=O)O)N2C(=O)[C@@H](NC(=O)C(=NO)c3cccs3)[C@H]2SC1 [TBBL-0000058] | 41.8 µM | > 100 µM | 0.5 µM | 84.6 µM | 56.8 µM | > 100 µM | 1.1 µM | 8.7 µM | Plasma stability % Remaining, Monkey [1]: 22.0%; Plasma stability % Remaining, Rat [2]: 60.9%; Plasma stability % Remaining, Mouse [3]: 67.6%; FaSSIF Stability, % remaining, 6h [4]: 114.21%; FaSSIF Stability, % remaining, 24h [4]: 66.32%; SGF Stability, % remaining, 1h [6]: 94.94%; SGF Stability, % remaining, 24h [6]: 57.36%; Plasma stability % Remaining, Dog [8]: 81.2%; Caco-2 Mean Papp A to B (Caco-2 cells): < 0.38 10-6 cm/s; Caco-2 Mean Papp B to A (Caco-2 cells): 0.63 10-6 cm/s; Caco-2 Efflux Ratio (Caco-2 cells): > 1.68; Caco-2 Mean Recovery % A to B (Caco-2 cells): < 98.97%; Caco-2 Mean Recovery % B to A (Caco-2 cells): 111.16%; Caco-2 Rank Papp (Caco-2 cells): Low; Efflux Transporter Substrate (Caco-2 cells): Poor or no; Plasma stability % Remaining, Human [9]: 35.0%
3 | CCc1nnc(SCC2=C(C(=O)O)N3C(=O)[C@@H](NC(=O)Cc4ccc(C5=NCCCN5)cc4)[C@H]3SC2)s1 [TBBL-0000317] | > 100 µM | > 100 µM | 2.1 µM | > 100 µM | > 100 µM | > 100 µM | 1.1 µM | 22.3 µM | Plasma stability % Remaining, Monkey [1]: 13.4%; Plasma stability % Remaining, Rat [2]: 2.4%; Plasma stability % Remaining, Mouse [3]: 13.3%; FaSSIF Stability, % remaining, 6h [4]: 94.96%; FaSSIF Stability, % remaining, 24h [4]: 90.38%; SGF Stability, % remaining, 1h [6]: 90.44%; SGF Stability, % remaining, 24h [6]: 79.32%; Plasma stability % Remaining, Dog [8]: 31.5%; Plasma stability % Remaining, Human [9]: 17.4%
4 | NCCSC=CC1=C(C(=O)O)N2C(=O)C(NC(=O)CSc3ccc(Cl)c(Cl)c3)C2SC1 (stereo not shown) [TBBL-0000306] | > 100 µM | > 100 µM | > 100 µM | > 100 µM | > 100 µM | > 100 µM | 0.3 µM | 14.4 µM | Plasma stability % Remaining, Monkey [1]: 2.0%; Plasma stability % Remaining, Rat [2]: 23.0%; Plasma stability % Remaining, Mouse [3]: 33.8%; FaSSIF Stability, % remaining, 6h [4]: 102.19%; FaSSIF Stability, % remaining, 24h [4]: 98.38%; SGF Stability, % remaining, 1h [6]: 110.19%; SGF Stability, % remaining, 24h [6]: 92.52%; Plasma stability % Remaining, Dog [8]: 16.6%; Plasma stability % Remaining, Human [9]: 9.5%
5 | O=C(Cc1cccs1)N[C@@H]1C(=O)N2C(C(=O)O)=C(C[n+]3ccccn3)CS[C@H]12 [TBBL-0000466] | 35.1 µM | > 100 µM | 0.5 µM | > 100 µM | > 100 µM | > 100 µM | 1.8 µM | 39 µM | 
6 | O=C(CSc1cccc[n+]1[O-])N[C@@H]1C(=O)N2C(C(=O)O)=C(CSc3cccc[n+]3[O-])CS[C@H]12 [TBBL-0000003] | 44.1 µM | > 100 µM | 4.3 µM | 3.5 µM | 3.2 µM | > 100 µM | 3.8 µM | 4.8 µM | 
7 | CC1=C(C(=O)O)N2C(=O)[C@@H](NC(=O)CSc3ccc(C(=N)N)cc3)[C@H]2SC1 [TBBL-0000328] | > 100 µM | > 100 µM | 12.9 µM | > 100 µM | > 100 µM | > 100 µM | 1.4 µM | 64.1 µM | 
8 | O=C(Cc1cccs1)N[C@@H]1C(=O)N2C(C(=O)[O-])=C(C[n+]3ccccc3)CS[C@H]12 [TBBL-0000493] | 37.9 µM | > 100 µM | 0.8 µM | > 100 µM | > 100 µM | > 100 µM | 2.2 µM | 50 µM | 
9 | O=C(Cc1csc(=O)s1)N[C@@H]1C(=O)N2C(C(=O)O)=C(CSc3nnnn3CCO)CS[C@H]12 [TBBL-0000305] | 7.5 µM | > 100 µM | > 100 µM | > 100 µM | > 100 µM | > 100 µM | 2.1 µM | 40.7 µM | 
10 | CC(=O)OC(C(=O)N[C@@H]1C(=O)N2C(C(=O)O)=C(CSc3cccc[n+]3[O-])CS[C@H]12)c1ccccc1 (stereo partly shown) [TBBL-0000007] | 85.1 µM | > 100 µM | 2.4 µM | 2.5 µM | 2.3 µM | > 100 µM | 2.8 µM | 2.3 µM | 
11 | CCn1nnnc1SCC1=C(C(=O)O)N2C(=O)[C@@H](NC(=O)Cc3ccc(C4=NCCN4)cc3)[C@H]2SC1 [TBBL-0000313] | 11.6 µM | > 100 µM | 0.8 µM | > 100 µM | > 100 µM | > 100 µM | 0.6 µM | 17.3 µM | 
12 | O=C(Cn1cnnn1)N[C@@H]1C(=O)N2C(C(=O)O)=C(CSc3cccc[n+]3[O-])CS[C@H]12 [TBBL-0000002] | 15.3 µM | > 100 µM | 3.7 µM | 3 µM | 4.4 µM | > 100 µM | 5.8 µM | 5.7 µM | 
13 | Cn1nnnc1SCC1=C(C(=O)O)N2C(=O)[C@@H](NC(=O)CSc3cc(Cl)ccc3Cl)[C@H]2SC1 [TBBL-0000446] | 13.3 µM | > 100 µM | < 0.1 µM | > 100 µM | > 100 µM | > 100 µM | 1.5 µM | 20.7 µM | 
14 | Cc1nnc(SCC2=C(C(=O)O)N3C(=O)[C@@H](NC(=O)Cc4sc(=O)sc4C)[C@H]3SC2)s1 [TBBL-0000330] | > 100 µM | > 100 µM | > 100 µM | > 100 µM | > 100 µM | > 100 µM | 2.8 µM | 27.6 µM | 

Source: PMC8922279, “Identification of β-Lactams Active against Mycobacterium tuberculosis by a Consortium of Pharmaceutical Companies and Academic Institutions” (ACS Infectious Diseases, 2022)
